Results from PubChem BioAssay (NCI).
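Exposure lasted 48 hours, with cells grown in 96-well plates and compounds tested at five concentrations. GI50: concentration for 50% inhibition of growth. The concentration for full growth arrest is given as TGI.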

Experiments:
Assay in all cases: DTP human tumour cell line panel, 48 h
HS 578T breast = test system: HS 578T breast
K-562 leukemia = test system: K-562 leukemia
OVCAR-3 ovarian = test system: OVCAR-3 ovarian
UACC-257 melanoma = test system: UACC-257 melanoma
NCI-H23 lung = test system: NCI-H23 lung
SW-620 colon = test system: SW-620 colon
CAKI-1 renal = test system: CAKI-1 renal
MALME-3M melanoma = test system: MALME-3M melanoma
COLO 205 colon = test system: COLO 205 colon
MDA-MB-435 = test system: MDA-MB-435
CCRF-CEM leukemia = test system: CCRF-CEM leukemia
A498 renal = test system: A498 renal
RPMI-8226 leukemia = test system: RPMI-8226 leukemia
M14 melanoma = test system: M14 melanoma
UACC-62 melanoma = test system: UACC-62 melanoma
HCT-116 colon = test system: HCT-116 colon
MDA-MB-231 breast = test system: MDA-MB-231 breast
MOLT-4 leukemia = test system: MOLT-4 leukemia
OVCAR-8 ovarian = test system: OVCAR-8 ovarian
OVCAR-5 ovarian = test system: OVCAR-5 ovarian
SK-MEL-2 melanoma = test system: SK-MEL-2 melanoma
SR leukemia = test system: SR leukemia
SF-268 CNS = test system: SF-268 CNS
T-47D breast = test system: T-47D breast
HT29 colon = test system: HT29 colon
HOP-92 NSCLC = test system: HOP-92 NSCLC
U251 CNS = test system: U251 CNS
LOX IMVI melanoma = test system: LOX IMVI melanoma
NCI-H522 lung = test system: NCI-H522 lung
PC-3 prostate = test system: PC-3 prostate
NCI/ADR-RES ovarian = test system: NCI/ADR-RES ovarian
SK-MEL-28 melanoma = test system: SK-MEL-28 melanoma
UO-31 renal = test system: UO-31 renal
SNB-19 CNS = test system: SNB-19 CNS
786-0 renal = test system: 786-0 renal
DU-145 prostate = test system: DU-145 prostate
HOP-62 NSCLC = test system: HOP-62 NSCLC
SF-295 CNS = test system: SF-295 CNS
MCF7 breast = test system: MCF7 breast
NCI-H460 lung = test system: NCI-H460 lung
TK-10 renal = test system: TK-10 renal
OVCAR-4 ovarian = test system: OVCAR-4 ovarian
BT-549 breast = test system: BT-549 breast
A549 NSCLC = test system: A549 NSCLC
HCC-2998 colon = test system: HCC-2998 colon
ACHN renal = test system: ACHN renal
SN12C renal = test system: SN12C renal
SK-OV-3 ovarian = test system: SK-OV-3 ovarian
IGROV1 ovarian = test system: IGROV1 ovarian
RXF 393 renal = test system: RXF 393 renal
NCI-H226 lung = test system: NCI-H226 lung
KM12 colon = test system: KM12 colon
HCT-15 colon = test system: HCT-15 colon
SK-MEL-5 melanoma = test system: SK-MEL-5 melanoma
SF-539 CNS = test system: SF-539 CNS
SNB-75 CNS = test system: SNB-75 CNS
HL-60(TB) leukemia = test system: HL-60(TB) leukemia

Compound O=C(NC1CCN(Cc2ccccc2)CC1)c1cc(-c2ccncc2)nc2ccc(Cl)cc12 has a GI50 (HS 578T breast) of 14.4 µM, a TGI (HS 578T breast) of 64 µM and a GI50 (K-562 leukemia) of 3.78 µM. The TGI (K-562 leukemia) was 27.3 µM, the GI50 (OVCAR-3 ovarian) was 15.4 µM and the TGI (OVCAR-3 ovarian) was 40.1 µM. It also gave a GI50 (UACC-257 melanoma) of 16.9 µM, a TGI (UACC-257 melanoma) of 36.3 µM and a GI50 (NCI-H23 lung) of 43.5 µM. For the same compound, the TGI (NCI-H23 lung) was > 100 µM, the GI50 (SW-620 colon) was 19.8 µM and the TGI (SW-620 colon) was > 100 µM. The GI50 (CAKI-1 renal) was 5.43 µM, the TGI (CAKI-1 renal) was > 50.5 µM and the GI50 (MALME-3M melanoma) was 9.39 µM. For the same compound, the TGI (MALME-3M melanoma) was 26.9 µM, the GI50 (COLO 205 colon) was 7.76 µM and the TGI (COLO 205 colon) was 42.7 µM. For the same compound, the GI50 (MDA-MB-435) was 15 µM, the TGI (MDA-MB-435) was > 88.7 µM and the GI50 (CCRF-CEM leukemia) was 21.2 µM. The TGI (CCRF-CEM leukemia) was > 100 µM, the TGI (A498 renal) was 3.45 µM and the GI50 (RPMI-8226 leukemia) was 12.4 µM. For the same compound, the TGI (RPMI-8226 leukemia) was > 74 µM, the GI50 (M14 melanoma) was 7.02 µM and the TGI (M14 melanoma) was 34.9 µM. For the same compound, the GI50 (UACC-62 melanoma) was 20.6 µM, the TGI (UACC-62 melanoma) was > 85.3 µM and the GI50 (HCT-116 colon) was 9.64 µM. For the same compound, the TGI (HCT-116 colon) was 33.9 µM, the GI50 (MDA-MB-231 breast) was 4.5 µM and the TGI (MDA-MB-231 breast) was > 59.9 µM. For the same compound, the GI50 (MOLT-4 leukemia) was 4.26 µM, the TGI (MOLT-4 leukemia) was > 46.3 µM and the GI50 (OVCAR-8 ovarian) was 22.5 µM. For the same compound, the TGI (OVCAR-8 ovarian) was > 72.9 µM, the GI50 (OVCAR-5 ovarian) was 13.9 µM and the TGI (OVCAR-5 ovarian) was > 100 µM. For the same compound, the GI50 (SK-MEL-2 melanoma) was 29.8 µM, the TGI (SK-MEL-2 melanoma) was 87.1 µM and the GI50 (SR leukemia) was 6.82 µM. For the same compound, the TGI (SR leukemia) was 34.8 µM, the GI50 (SF-268 CNS) was 22.6 µM and the TGI (SF-268 CNS) was > 100 µM. For the same compound, the GI50 (T-47D breast) was 13.3 µM, the TGI (T-47D breast) was 49.1 µM and the GI50 (HT29 colon) was 4.7 µM. It also gave a TGI (HT29 colon) of 19.7 µM, a GI50 (HOP-92 NSCLC) of 2.49 µM and a TGI (HOP-92 NSCLC) of 47.4 µM. The GI50 (U251 CNS) was 17.1 µM, the TGI (U251 CNS) was > 71.7 µM and the GI50 (LOX IMVI melanoma) was 12 µM. For the same compound, the TGI (LOX IMVI melanoma) was 29.6 µM, the GI50 (NCI-H522 lung) was 22.2 µM and the TGI (NCI-H522 lung) was 60.6 µM. The GI50 (PC-3 prostate) was 13.6 µM, the TGI (PC-3 prostate) was > 100 µM and the GI50 (NCI/ADR-RES ovarian) was 22.2 µM. For the same compound, the TGI (NCI/ADR-RES ovarian) was > 100 µM, the GI50 (SK-MEL-28 melanoma) was 10.5 µM and the TGI (SK-MEL-28 melanoma) was > 50.7 µM. It also gave a GI50 (UO-31 renal) of 3.12 µM, a TGI (UO-31 renal) of 33.9 µM and a GI50 (SNB-19 CNS) of 26.3 µM. The TGI (SNB-19 CNS) was > 100 µM, the GI50 (786-0 renal) was 6.84 µM and the TGI (786-0 renal) was 28.7 µM. For the same compound, the GI50 (DU-145 prostate) was 20.1 µM, the TGI (DU-145 prostate) was 63.1 µM and the GI50 (HOP-62 NSCLC) was 14.5 µM. For the same compound, the TGI (HOP-62 NSCLC) was > 100 µM, the GI50 (SF-295 CNS) was 17.4 µM and the TGI (SF-295 CNS) was 53.5 µM. For the same compound, the GI50 (MCF7 breast) was 5.66 µM, the TGI (MCF7 breast) was 30.6 µM and the GI50 (NCI-H460 lung) was 11.4 µM. The TGI (NCI-H460 lung) was 33.7 µM, the GI50 (TK-10 renal) was 29.7 µM and the TGI (TK-10 renal) was > 91.8 µM. The GI50 (OVCAR-4 ovarian) was 10.7 µM, the TGI (OVCAR-4 ovarian) was 59.6 µM and the GI50 (BT-549 breast) was 17.2 µM. It also gave a TGI (BT-549 breast) of 99.9 µM, a GI50 (A549 NSCLC) of 10.6 µM and a TGI (A549 NSCLC) of 54.2 µM. For the same compound, the GI50 (HCC-2998 colon) was 21.6 µM, the TGI (HCC-2998 colon) was > 91.1 µM and the GI50 (ACHN renal) was 6.71 µM. For the same compound, the TGI (ACHN renal) was 24.7 µM, the GI50 (SN12C renal) was 35.6 µM and the TGI (SN12C renal) was > 100 µM. The GI50 (SK-OV-3 ovarian) was 23.3 µM, the TGI (SK-OV-3 ovarian) was > 100 µM and the GI50 (IGROV1 ovarian) was 18.5 µM. The TGI (IGROV1 ovarian) was > 100 µM, the GI50 (RXF 393 renal) was 5.48 µM and the TGI (RXF 393 renal) was 49.2 µM. The GI50 (NCI-H226 lung) was 30.2 µM, the TGI (NCI-H226 lung) was > 100 µM and the GI50 (KM12 colon) was 24.1 µM. For the same compound, the TGI (KM12 colon) was > 100 µM, the GI50 (HCT-15 colon) was 10.5 µM and the TGI (HCT-15 colon) was > 48.2 µM. For the same compound, the GI50 (SK-MEL-5 melanoma) was 9.07 µM, the TGI (SK-MEL-5 melanoma) was 21.7 µM and the GI50 (SF-539 CNS) was 13.1 µM. It also gave a TGI (SF-539 CNS) of 35.9 µM, a GI50 (SNB-75 CNS) of 2.43 µM and a TGI (SNB-75 CNS) of 30.4 µM. It also gave a GI50 (HL-60(TB) leukemia) of 17.3 µM and a TGI (HL-60(TB) leukemia) of 59.6 µM.
